Measurements published in patent publication US20260137091A1, “NEW PEPTIDES AND THE USE OF SAME FOR MODULATING ACCUMULATION OF A PROTEIN” (priority 2022, published 2026).

System: NSP1-GUS fusion protein
Test: Quantification of GUS activity in roots expressing an NSP1-GUS fusion after cPEP treatment
Assay type: in vivo
Conditions: Medicago truncatula transformed roots; treatment for 5 days with 0.1 μM cPEP by spraying; versus control (water)
Method: The y-axis represents the quantification of GUS activity in the roots of an NSP1-GUS fusion in response to treatment for 5 days with 0.1 μM of a cPEP targeting the 5′UTR region of the NSP1 gene. Error bars represent SEM, asterisks indicate a significant difference between test condition and control according to Student's t-test (n=30, p<0.05).
NSP1::GUS fusion was achieved, using a modified pCambia vector (Lauressergues et al., Nature, 520: 90-3, 2015), by cloning 3 kb of NSP1 promoter, the NSP1 gene coding sequence, the GUS protein coding sequence and 3 kb of the NSP1 gene downstream sequence (FIG. 2).
Root transformation of M. truncatula was carried out using the method described in Boisson-Dernier et al, Mol Plant Microbe Interact, 14(6): 695-700, 2001.
Plants were treated by spraying with a solution containing a low concentration of cPEPs (from 0.1 μM to 10 μM) or with water.
The accumulation of the protein targeted by cPEP was then measured in each plant by quantifying GUS activity or by quantifying protein activity by Western blot (Blizquez M., Quantitative GUS activity assay in intact plant tissue, Cold Spring Harbor Laboratory Press, Cold Spring Harbor, NY, USA, 2002).

Substance | accumulation of the NSP1 protein (quantification of GUS activity in the roots of an NSP1-GUS fusion)
SEQ ID NO: 162: cPEP (11 amino acids) translated from a fragment of the 5′UTR of NSP1 pre-mRNA, +3 reading frame (KPFKFSSSISH; NSP1-5UTR-11) | increase in the accumulation of the NSP1 protein
SEQ ID NO: 164: cPEP (10 amino acids) translated from a 30 nucleotide fragment of the 3′UTR of NSP1 pre-mRNA, +2 reading frame (CHHDEVISPQ; NSP1-3UTR) | increase in the accumulation of the NSP1 protein
